Source: patent US5340807A, “Tricyclic compounds and intermediates thereof” (priority 1991, dated 1994)

What was measured:
[1] = test system: acyl coenzyme A: cholesterol acyltransferase (ACAT); experiment: Test for ACAT inhibitory activity (microsome fraction prepared from rabbit liver); assay type: biochemical; conditions: 10^-6 M, 37° C., 10 minutes
Method: Test for ACAT inhibitory activity The test for ACAT inhibitory activity was performed by a modified method of the method of Brecher et al. Biochim. Biophys. […] The radioactivity of the cholesterol ester spot was determined by a liquid scintillation counter. The radio-activity for each test compound was calculated by the difference between the radioactivity with the microsome fraction and the radioactivity without the microsome fraction. The radioactivity of control was determined in a similar manner without any test compound.

male ddy strain mice = experiment: Test for acute toxicity (minimum lethal dose, oral); assay type: in vivo; conditions: mortality observed seven days after administration
Method: Groups of 3 male ddy strain mice weighing 20±1 g were used. The test compounds were orally administered. Seven days after administration, the mortality was observed and the minimum lethal dose (MLD) was determined.

serum cholesterol level = experiment: Inhibition effect on serum cholesterol level in hamster with dietary hyperlipemia; assay type: in vivo; conditions: Golden hamster, 2% cholesterol feed for 3 days; 30 mg/kg orally once a day
Method: Inhibition effect on serum cholesterol level in hamster with dietary hyperlipemia
Golden hamster (SLC, male, age of 6 weeks) was made free access to feed containing 2% cholesterol for 3 days. Each test compound was suspended in olive oil and orally administered once a day in a dose of 30 mg/kg during the feeding. (A: Test Group administered with the test compound, B: Control Group administered with olive oil only). In Group C, feed free from cholesterol was fed for 3 days. On the fourth day, blood sample was collected from the descending aorta under pentobarbital anesthesia and cholesterol level in serum was determined. The total cholesterol level in serum of each group was determined and the inhibition rate for the test compound was calculated according to the following equation. [formula]

Row | Structure (SMILES) | Inhibiting rate(%) of ACAT [1] [%] | Acute Toxicity (MLD), minimum lethal dose (male ddy strain mice) [mg/kg] | Inhibition Rate (%) of total cholesterol level in serum (serum cholesterol level) [%]
1 | CC(C)c1cccc(C(C)C)c1NC(=O)C1c2ccccc2COc2ccc(Br)cc21 (single isomer, unassigned) [Compound 60, (-) -2-Bromo-6,11-dihydro-N-(2,6-diisopropylphenyl) dibenz[b,e]oxepin-11-carboxamide] | 99 |  | 
2 | CC(C)c1cccc(C(C)C)c1NC(=O)C1c2ccccc2COc2ccc(Br)cc21 (single isomer, unassigned) [Compound 61, (+) -2-Bromo-6,11-dihydro-N-(2,6-diisopropylphenyi)dibenz[b,e]oxepin-11-carboxamide] | 92 |  | 
3 | CCc1cccc(CC)c1NC(=O)C1c2ccccc2COc2ccc(C)cc21 (stereo not drawn) [Compound 3, N-(2,6-Diethylphenyl) -6,11-dihydro-2-methyldibenz[b,e]-oxepin-11-carboxamide] | 77 | > 300 | 
4 | Cc1ccc2c(c1)C(C(=O)Nc1c(C(C)C)cccc1C(C)C)c1ccccc1CO2 (stereo not drawn) [Compound 4, 6,11-Dihydro-N-(2,6-diisopropylphenyl)-2-methyldibenz[b,e]-oxepin-11-carboxamide] | 98 | > 300 | 70
5 | Cc1ccc2c(c1)C(C(=O)Nc1ccccc1C(C)C)c1ccccc1CO2 (stereo not drawn) [Compound 5, 6,11-Dihydro-N-(2-isopropylphenyl)-2-methyldibenz[b,e]-oxepin-11-carboxamide] | 56 | > 300 | 
6 | CC(C)c1cccc(C(C)C)c1NC(=O)C1c2ccccc2COc2ccc(F)cc21 (stereo not drawn) [Compound 16, 2-Fluoro-6,11-dihydro-N-(2,6-diisopropylphenyl)dibenz[b,e]-oxepin-11-carboxamide] | 81 | > 300 | 
7 | CC(C)c1cccc(C(C)C)c1NC(=O)C1c2ccccc2COc2ccc(Cl)cc21 (stereo not drawn) [Compound 17, 2-Chloro-6,11-dihydro-N-(2,6-diisopropylphenyl)dibenz[b,e]-oxepin-11-carboxamide] | 94 | > 300 | 
8 | CC(C)c1cccc(C(C)C)c1NC(=O)C1c2ccccc2COc2ccc(Br)cc21 (stereo not drawn) [Compound 18, 2-Bromo-6,11-dihydro-N-(2,6-diisopropylphenyl)dibenz[b,e]-oxepin-11-carboxamide] | 100 | > 300 | 114
9 | Cc1cc(Br)c2c(c1)C(C(=O)Nc1c(C(C)C)cccc1C(C)C)c1ccccc1CO2 (stereo not drawn) [Compound 21, 4-Bromo-6,11-dihydro-N-(2,6-diisopropylphenyl) -2-methyldibenz[b,e]oxepin-11-carboxamide] |  |  | 67
10 | CC(C)c1cccc(C(C)C)c1NC(=O)C1c2ccccc2COc2ccc(C#N)cc21 (stereo not drawn) [Compound 23, 2-Cyano-6,11-dihydro-N-(2,6-diisopropylphenyl)dibenz[b,e]-oxepin-11-carboxamide] | 69 | > 300 | 
11 | COC(=O)c1ccc2c(c1)C(C(=O)Nc1c(C(C)C)cccc1C(C)C)c1ccccc1CO2 (stereo not drawn) [Compound 24, 6,11-Dihydro-N-(2,6-diisopropylphenyl)-2-methoxycarbonyl-dibenz[b,e]oxepin-11-carboxamide] | 90 | > 300 | 
12 | CCc1cccc(CC)c1NC(=O)C1c2ccccc2COc2ccc(Br)cc21 (stereo not drawn) [Compound 27, 2-Bromo-N-(2,6-diethylphenyl)-6,11-dihydrodibenz[b,e]oxepin-11-carboxamide] | 80 | > 300 | 
13 | O=C(Nc1c(Cl)cccc1Cl)C1c2ccccc2COc2cc(Br)ccc21 (stereo not drawn) [Compound 28, 3-Bromo-N-(2,6-dichlorophenyl)-6,11-dihydrodibenz[b,e]oxepin-11-carboxamide] | 52 | > 300 | 
14 | CC(C)c1cccc(C(C)C)c1NC(=O)C1c2ccccc2COc2cc(Br)ccc21 (stereo not drawn) [Compound 29, 3-Bromo-6,11-dihydro-N-(2,6-diisopropylphenyl)dibenz[b,e]-oxepin-11-carboxamide] | 86 | > 300 | 

Further lines, with some results ahead:

Row | Inhibiting rate(%) of ACAT [1] [%] | Structure (SMILES) | Acute Toxicity (MLD), minimum lethal dose (male ddy strain mice) [mg/kg] | Inhibition Rate (%) of total cholesterol level in serum (serum cholesterol level) [%]
15 | 66 | Cc1ccc2c(c1)C(C(=O)Nc1c(C)cccc1C)c1ccccc1CO2 (stereo not drawn) [Compound 2, 6,11-Dihydro-2-methyl-N-(2,6-dimethylphenyl) dibenz[b,e]-oxepin-11-carboxamide] |  | 
16 | 78 | CSc1cc(C(C)C)c(NC(=O)C2c3ccccc3COc3ccc(C)cc32)c(C(C)C)c1 (stereo not drawn) [Compound 30, 6,11-Dihydro-N-(2,6-diisopropyl-4-methylthiophenyl)-2-methyldibenz[b,e]oxepin-11-carboxamide] |  | 
17 | 91 | O=C(Nc1c(Cl)cccc1Cl)C1c2ccccc2COc2ccc(Br)cc21 (stereo not drawn) [Compound 39, 2-Bromo-N-(2,6-dichlorophenyl)-6,11-dihydrodibenz[b,e]oxepin-11-carboxamide] |  | 
18 | 91 | CC(C)c1cccc(C(C)C)c1NC(=O)C1c2cc(Br)ccc2OCc2ncccc21 (stereo not drawn) [Compound 42] |  | 
19 | 95 | CSc1cc(C(C)C)c(NC(=O)C2c3ccccc3COc3ccc(Br)cc32)c(C(C)C)c1 (stereo not drawn) [Compound 44, 2-Bromo-6,11-dihydro-N-(2,6-diisopropyl-4-methylthiophenyl)dibenz[b,e]oxepin-11-carboxamide] |  | 
20 | 96 | Cc1cc2c(cc1C)C(C(=O)Nc1c(C(C)C)cccc1C(C)C)c1ccccc1CO2 (stereo not drawn) [Compound 48, 6,11-Dihydro-N-(2,6-diisopropylphenyl)-2,3-dimethyldibenz[b,e]oxepin-11-carboxamide] |  | 
21 | 97 | Cc1ccc(C)c2c1OCc1ccccc1C2C(=O)Nc1c(C(C)C)cccc1C(C)C (stereo not drawn) [Compound 49, 6,11-Dihydro-N-(2,6-diisopropylphenyl)-1,4-dimethyldibenz[b,e]oxepin-11-carboxamide] |  | 
22 | 93 | CCc1cccc(CC)c1NC(=O)C1c2ccccc2COc2c(C)ccc(C)c21 (stereo not drawn) [Compound 50, 6,11-Dihydro-N-(2,6-diethylphenyl) -1,4-dimethyldibenz[b,e]-oxepin-11-carboxamide] |  | 
23 | 99 | COC(=O)c1cc(C)cc2c1OCc1ccccc1C2C(=O)Nc1c(C(C)C)cccc1C(C)C (stereo not drawn) [Compound 51, Methyl 6,11-dihydro-11-(2,6-diisopropylphenyl)aminocarbonyl-2-methyldibenz[b,e]oxepin-4-carboxylate] |  | 
24 | 100 | CC(C)c1cccc(C(C)C)c1NC(=O)C1c2ccccc2COc2c1cc(Br)cc2[N+](=O)[O-] (stereo not drawn) [Compound 53, 2-Bromo-6,11-dihydro-N-(2,6-diisopropylphenyl)-4-nitrodibenz[b,e]oxepin-11-carboxamide] |  | 
25 | 100 | CC(C)c1cccc(C(C)C)c1NC(=O)C1c2ccccc2COc2c1cc(Br)cc2N(C)C.Cl (stereo not drawn) [Compound 55, 2-Bromo-6,11-dihydro-N-(2,6-diisopropylphenyl)-4-dimethylaminodibenz[b,e]oxepin-11-carboxamide hydrochloride] |  | 
26 | 99 | Cc1cc2c(c(C)c1Br)C(C(=O)Nc1c(C(C)C)cccc1C(C)C)c1ccccc1CO2 (stereo not drawn) [Compound 56, 2-Bromo-6,11-dihydro-N-(2,6-diisopropylphenyl)-1,3-dimethyldibenz[b,e]oxepin-11-carboxamide] |  | 
27 | 98 | CCc1cccc(CC)c1NC(=O)C1c2ccccc2COc2cc(C)c(Br)c(C)c21 (stereo not drawn) [Compound 57, 2-Bromo-N-(2,6-diethylphenyl)-6,11-dihydro-1,3-dimethyldibenz[b,e]oxepin-11-carboxamide] |  | 
28 | 100 | Cc1cc(Cl)c2c(c1C)C(C(=O)Nc1c(C(C)C)cccc1C(C)C)c1ccccc1CO2 (stereo not drawn) [Compound 59, 4-Chloro-6,11-dihydro-N-(2,6-diisopropylphenyl)-1,2-dimethyldibenz[b,e]oxepin-11-carboxamide] |  | 
29 | 100 | Cc1cc(C)c2c(c1)OCc1ccccc1C2C(=O)Nc1c(C(C)C)cccc1C(C)C (stereo not drawn) [Compound 62, 6,11-Dihydro-N-(2,6-diisopropylphenyl)-1,3-dimethyldibenz-[b,e]oxepin-11-carboxamide] |  | 
30 | 100 | Cc1ccc(Cl)c2c1C(C(=O)Nc1c(C(C)C)cccc1C(C)C)c1ccccc1CO2 (stereo not drawn) [Compound 64, 4-Chloro-6,11-dihydro-N-(2,6-diisopropylphenyl) -1-methyldibenz[b,e]oxepin-11-carboxamide] |  | 
31 | 99 | Cc1ccc2c(c1)C(C(=O)Nc1c(C(C)C)cccc1C(C)C)c1ccccc1CC2 (stereo not drawn) [Compound 68, 10,11-Dihydro-N-(2,6-diisopropylphenyl)-3-methyl-5H-dibenz[a,d]cyclohepten-5-carboxamide] |  | 
32 | 98 | CC(C)c1cccc(C(C)C)c1NC(=O)C1c2ccccc2CCc2cc(Br)ccc21 (stereo not drawn) [Compound 69, 2-Bromo-10,11-dihydro-N-(2,6-diisopropylphenyl) -5H-dibenz[a,d]cyclohepten-5-carboxamide] |  | 
